# Experimental data as given in paper PMC11124870, “Effect of Antioxidants in Medicinal Products on Intestinal Drug Transporters” (Pharmaceutics, 2024).
# Where “and” joins values, the source holds several entries; their conditions need not be identical. Identical values can stand only once. Entries after “also recorded” stand apart in the source; their conditions may differ.
# What was measured:
# [1] = target: P-gp (human MDR1) (Homo sapiens, UniProt P08183); assay: Transwell transport assay, basal-to-apical digoxin flux in MDCK-hMDR1-cMDR1-KO cells; conditions: 3H-digoxin 2.5 µM, 4 h
# Description: (§1) The transport assay was performed using MDCK-hMDR1-cMDR1-KO, MDCK-cMDR1-KO, and MDCK-hBCRP-cMDR1-KO as reported previously with minor modifications. In brief, 133,000 cells were seeded onto a Transwell membrane insert, a semipermeable polyethylene terephthalate membrane. During the differentiation process, the medium volume in the apical chamber was kept at 300 μL, while the basal chamber contained 1000 μL. The cells were allowed to differentiate for 7–9 days at 37 °C in a humidified incubator with 5% CO2. Before starting transporter assays, the integrity of the cell monolayer was checked using lucifer yellow permeability assays. […] From the basal chamber, 100 μL samples were collected for fluorescence measurements using GloMax® Explorer with a 475 nm excitation filter and a 500–550 nm emission filter to calculate the percent permeability per well.
# (§2) To assess the flux of digoxin or prazosin from the basal to apical side, the cells were washed twice with HBSS. […] All apical and basal samples were mixed with scintillation fluid (EcoLite(+)™ liquid scintillation cocktail), and their radioactivity was measured using liquid scintillation counting (Beckman LS6500). […] For data analysis, the disintegration per minute counts of digoxin or prazosin from the apical samples were converted to picomoles using radioactivity measured in the substrate solution.
# [2] = target: T1, BCRP (Homo sapiens, UniProt Q9UNQ0); assay: Transwell transport assay, basal-to-apical prazosin flux in MDCK-hBCRP-cMDR1-KO cells; conditions: BHA 178 µM on both sides; 3H-prazosin 1 µM; 4 h
# T1 sequence (Q9UNQ0 1-655): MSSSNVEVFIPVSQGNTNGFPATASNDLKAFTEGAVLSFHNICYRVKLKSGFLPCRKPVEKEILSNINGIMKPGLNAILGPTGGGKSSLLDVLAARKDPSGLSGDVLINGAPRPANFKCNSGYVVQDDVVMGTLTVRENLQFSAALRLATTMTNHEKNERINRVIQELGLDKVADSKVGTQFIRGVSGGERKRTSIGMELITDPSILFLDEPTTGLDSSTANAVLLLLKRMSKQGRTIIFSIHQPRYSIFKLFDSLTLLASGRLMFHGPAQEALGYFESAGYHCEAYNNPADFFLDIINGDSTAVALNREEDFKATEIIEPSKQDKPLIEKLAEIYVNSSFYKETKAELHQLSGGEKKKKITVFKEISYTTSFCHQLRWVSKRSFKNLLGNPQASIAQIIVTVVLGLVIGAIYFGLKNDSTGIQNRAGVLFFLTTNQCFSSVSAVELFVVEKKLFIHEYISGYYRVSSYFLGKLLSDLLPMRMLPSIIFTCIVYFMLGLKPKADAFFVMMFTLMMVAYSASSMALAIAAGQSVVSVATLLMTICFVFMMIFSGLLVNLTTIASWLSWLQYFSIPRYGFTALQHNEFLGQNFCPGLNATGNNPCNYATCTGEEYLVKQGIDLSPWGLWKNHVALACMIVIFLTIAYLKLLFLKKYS
# Description: as §1, §2
# [3] = target: T2, OATP2B1 (Homo sapiens, UniProt O94956); assay: 3H-valsartan uptake inhibition in HEK-293-OATP2B1 cells; conditions: read-out: IC50 OATP2B1, valsartan uptake, substrate 3H-valsartan, three independent experiments
# T2 sequence (O94956 1-709): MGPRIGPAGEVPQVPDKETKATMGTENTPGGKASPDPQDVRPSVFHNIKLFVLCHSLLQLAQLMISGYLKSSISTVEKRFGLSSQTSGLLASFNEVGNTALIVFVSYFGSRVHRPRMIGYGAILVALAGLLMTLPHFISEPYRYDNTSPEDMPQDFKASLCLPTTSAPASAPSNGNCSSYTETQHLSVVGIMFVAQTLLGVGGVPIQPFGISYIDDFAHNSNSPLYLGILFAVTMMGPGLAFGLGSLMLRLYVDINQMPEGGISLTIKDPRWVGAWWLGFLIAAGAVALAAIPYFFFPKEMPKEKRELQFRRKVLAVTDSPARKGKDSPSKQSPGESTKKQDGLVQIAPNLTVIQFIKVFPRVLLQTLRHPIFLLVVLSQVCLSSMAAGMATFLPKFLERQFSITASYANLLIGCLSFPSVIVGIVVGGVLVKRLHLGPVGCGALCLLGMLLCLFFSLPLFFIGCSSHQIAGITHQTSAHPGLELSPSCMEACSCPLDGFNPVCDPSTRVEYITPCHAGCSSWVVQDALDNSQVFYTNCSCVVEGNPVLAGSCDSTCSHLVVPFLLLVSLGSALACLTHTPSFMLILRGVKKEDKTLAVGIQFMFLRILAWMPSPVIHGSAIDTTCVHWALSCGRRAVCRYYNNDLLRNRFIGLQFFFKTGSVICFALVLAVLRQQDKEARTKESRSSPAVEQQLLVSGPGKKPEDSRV
# Description: (§3) The uptake transporter assay was performed as reported previously with minor modifications [15]. A day before the uptake assay, Isoplate 96-well plates were coated with poly-D-lysine in PBS with calcium and magnesium and washed with PBS. […] An assay mixture of ^3H-estrone sulfate, a known inhibitor of OATP2B1, or an antioxidant was prepared and incubated in a 37 °C incubator for 10 min. The cells were washed with ice-cold HBSS three times and incubated with MicroScint fluid on a shaker for 1 h for cell lysis. Radioactivity was measured by liquid scintillation counting with a MicroBeta^2® microplate counter. […] On the day of experiment, cells were washed twice with 0.4 mL of HBSS per well and then pre-incubated for 10–20 min in 0.4 mL of HBSS. […] Uptake of ^3H-valsartan was stopped after 15 min by washing three times with ice-cold HBSS. Cells were lysed in 750 µL of lysis buffer (0.1 N NaOH and 0.1% SDS in double-distilled water) per well while shaking for 60 min. A total of 690 µL of the lysate from each well was then added to 2.5 mL of EcoLite scintillation fluid. The radioactivity was determined on a LS6500 Scintillation Counter (Beckman Coulter). Protein concentration was measured with a Pierce™ BCA protein assay kit. The radioactivity in each well was corrected for protein concentration. All values were determined in triplicate, and the final values are expressed as % uptake relative to negative control (1% DMSO).
# (§4) Antioxidants were screened at a concentration of 200 μM.
# [4] = target: T2, OATP2B1; assay: Uptake transporter assay, 3H-estrone sulfate uptake in HEK-293-OATP2B1 cells; conditions: for IC50: mean ± SD of three independent experiments
# Description: as §3, §4
# Sequence of P-gp (human MDR1) (P08183 whole entry): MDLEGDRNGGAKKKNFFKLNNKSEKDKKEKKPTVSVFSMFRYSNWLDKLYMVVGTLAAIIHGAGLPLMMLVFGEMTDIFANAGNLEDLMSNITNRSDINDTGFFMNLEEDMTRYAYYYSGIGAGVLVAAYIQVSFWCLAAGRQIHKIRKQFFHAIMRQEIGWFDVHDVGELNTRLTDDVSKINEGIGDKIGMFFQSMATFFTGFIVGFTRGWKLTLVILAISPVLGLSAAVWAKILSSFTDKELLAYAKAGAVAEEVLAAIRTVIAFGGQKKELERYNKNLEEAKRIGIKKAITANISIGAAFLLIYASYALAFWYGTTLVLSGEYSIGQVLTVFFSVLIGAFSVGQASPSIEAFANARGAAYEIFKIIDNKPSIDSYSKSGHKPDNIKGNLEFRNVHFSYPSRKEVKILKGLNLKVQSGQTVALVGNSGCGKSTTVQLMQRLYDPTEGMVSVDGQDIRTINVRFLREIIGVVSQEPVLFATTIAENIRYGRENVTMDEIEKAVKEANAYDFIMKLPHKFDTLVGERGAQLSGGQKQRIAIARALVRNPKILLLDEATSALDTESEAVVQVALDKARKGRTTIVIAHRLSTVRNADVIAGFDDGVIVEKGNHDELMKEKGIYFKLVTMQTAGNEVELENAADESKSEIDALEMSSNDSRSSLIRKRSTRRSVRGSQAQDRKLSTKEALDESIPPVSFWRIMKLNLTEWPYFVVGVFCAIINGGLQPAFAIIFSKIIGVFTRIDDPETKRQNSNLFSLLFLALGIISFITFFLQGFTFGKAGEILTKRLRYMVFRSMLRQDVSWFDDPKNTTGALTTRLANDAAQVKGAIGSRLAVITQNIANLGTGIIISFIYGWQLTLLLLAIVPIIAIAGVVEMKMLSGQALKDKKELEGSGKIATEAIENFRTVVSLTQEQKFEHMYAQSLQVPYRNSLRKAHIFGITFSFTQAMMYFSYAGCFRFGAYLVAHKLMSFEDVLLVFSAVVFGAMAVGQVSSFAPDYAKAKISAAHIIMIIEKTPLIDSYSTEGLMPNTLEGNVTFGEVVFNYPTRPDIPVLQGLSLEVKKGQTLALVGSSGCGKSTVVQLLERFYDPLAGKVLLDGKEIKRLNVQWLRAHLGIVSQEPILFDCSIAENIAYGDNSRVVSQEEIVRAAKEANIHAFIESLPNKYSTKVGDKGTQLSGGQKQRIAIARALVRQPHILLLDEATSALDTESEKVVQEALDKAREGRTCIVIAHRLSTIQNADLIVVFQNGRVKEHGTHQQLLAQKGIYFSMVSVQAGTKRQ
smiles,measurement,setting,value
"COc1ccc(O)cc1C(C)(C)C [Butylated hydroxyanisole (BHA), 2-tert-Butyl-4-hydroxyanisole]",Inhibition of digoxin transport (basal to apical),[1]; BHA 62.5 µM on both sides,Neither the estimated maximal intestinal concentration of 178 µM nor a lower concentration (62.5 µM) inhibited digoxin transport
same,Inhibition of digoxin transport (basal to apical),[1]; BHA 178 µM on both sides,Neither the estimated maximal intestinal concentration of 178 µM nor a lower concentration (62.5 µM) inhibited digoxin transport; also recorded: did not impede digoxin transport
same,Inhibition of prazosin efflux (basal to apical),[2],did not inhibit prazosin efflux
same,IC50,[3],19 µM and 19.1 µM
same,Inhibition of OATP2B1,"[4]; 200 µM, 3H-estrone sulfate",at least 50%
same,Effect of 30 min pre-incubation on inhibition potency,[4]; OATP2B1-expressing cells pre-incubated for 30 min,did not further affect their inhibition potency
same,% Uptake of 3H-ES OATP2B1,"[4]; antioxidant 200 µM, uptake with DMSO set as 100%, mean ± SD, three replicates, HEK-293-OATP2B1 cells",19.8 ± 7.1%
same,IC50,"[4]; read-out: IC50 OATP2B1, substrate 3H-estrone sulfate",71 ± 20 µM
same,IC50,"[4]; read-out: IC50 with preincubation, OATP2B1 expressing cells pre-incubated 30 minutes",67 ± 12.8 µM
same,IC50,"[4]; read-out: IC50 without preincubation, OATP2B1 expressing cells",76.9 ± 15.9 µM
